Consider six compounds from patent publication US5596002A, “Method of treating chloroquine-resistant malaria with aminoquinoline derivatives” (Hoffmann-La Roche Inc., priority 1993, dated 1997).

In brackets after ≈: the same amount, converted by molar mass.

Holding throughout (assay type): cell-based
The subject of test [1] is Plasmodium falciparum, chloroquine-resistant strain W2 Mef. As to the kind of experiment: activity against P. falciparum in vitro, strain W2 Mef. As to conditions: 48 h-72 h, read-out: IC50 (50% growth inhibition). On the procedure:
(§1) Test method for the determination of the activity against P. falciparum in vitro
(§2) The preparations of the present invention were tested on intraerythrocytary stages of P. falciparum from asynchronous cultures according to the method of Desjardin et al. (Desjardins, R. E. et al: Quantitative assessment of antimalarial activity in vitro by a semiautomated microdilution technique. Antimicrob. Agents Chemother. 16, 710-718, (1979)).
(§3) The culture medium consisted of RPMI 1640 with the addition of 25 mM HEPES, 25 mM NaHCO3, […] neomycin and 10% human serum (A^+). Human-A^+ erythrocytes were used as the P. falciparum host cells. The parasites were maintained at 37° C. in an atmosphere of 3% O2, 4% CO2, 93% N2 and at 95% relative humidity.
(§4) In order to determine the activity, the preparations were dissolved in DMSO, pre-diluted in the culture medium to a suitable starting concentration and subsequently titrated-out into microtitre plates in the 2nd stage over 6-7 steps. After the addition of the parasite culture (0.7% parasitemia in 2.5% erythrocyte suspension), the test plates were incubated under the conditions given above for 48 h-72 h. The parasite growth in the different preparation concentrations was determined using [G-^3 H]-hypoxanthin incorporation compared to untreated control cultures on the same test plates. The 50% growth inhibition (IC50) was calculated according to logit regression analysis from the resulting dosage-activity curve.
(§5) The preparations were tested on at least one chloroquine-resistant and one chloroquine-sensitive P. falciparum strain. Additional sensitive and resistant strains were also included for further characterization.
(§6) Table 1 below contains the IC50 values measured in vitro for the growth inhibition of chloroquine-sensitive and chloroquine-resistant strains of the human pathogenic Plasmodium falciparum.

Test [2] concerns Plasmodium falciparum, chloroquine-resistant strain K1. As to the kind of experiment: activity against P. falciparum in vitro, strain K1. As to conditions: Plasmodium falciparum; chloroquine-resistant strain K1; 48 h-72 h; read-out: IC50 (50% growth inhibition). As for the experimental part:
as §1, §2, §3, §4, §5, §6

For test [3], the system named is Plasmodium falciparum, chloroquine-resistant strain Indo. As to the kind of experiment: activity against P. falciparum in vitro, strain Indo. As to conditions: chloroquine-resistant strain Indo, 48 h-72 h, read-out: IC50 (50% growth inhibition). On the procedure:
as §1, §2, §3, §4, §5, §6

Test [4] concerns Plasmodium falciparum, chloroquine-sensitive strain Ro7 3. As to the kind of experiment: activity against P. falciparum in vitro, strain Ro7 3. As to conditions: chloroquine-sensitive strain Ro7 3, 48 h-72 h, read-out: IC50 (50% growth inhibition). As for the experimental part: as §1, §2, §3, §4, §5, §6
In test [5] the test system is Plasmodium falciparum, chloroquine-resistant strain 7G8. Kind of test: activity against P. falciparum in vitro, strain 7G8. As to conditions: chloroquine-resistant strain 7G8, 48 h-72 h, read-out: IC50 (50% growth inhibition). On the procedure:
as §1, §2, §3, §4, §5, §6

The test system of test [6] is Plasmodium falciparum, chloroquine-sensitive strain RFMEF3. As to the kind of experiment: activity against P. falciparum in vitro, strain RFMEF3. As to conditions: chloroquine-sensitive strain RFMEF3, 48 h-72 h, read-out: IC50 (50% growth inhibition). As for the experimental part: as §1, §2, §3, §4, §5, §6
Test [7] concerns Plasmodium falciparum, chloroquine-resistant strain W2. As to the kind of experiment: activity against P. falciparum in vitro, strain W2. As to conditions: chloroquine-resistant strain W2, 48 h-72 h, read-out: IC50 (50% growth inhibition). As for the experimental part: as §1, §2, §3, §4, §5, §6
In test [8] the test system is Plasmodium falciparum, chloroquine-resistant strain ItG2 F6. Kind of test: activity against P. falciparum in vitro, strain ItG2 F6. Particulars: chloroquine-resistant strain ItG2 F6, 48 h-72 h, read-out: IC50 (50% growth inhibition). On the procedure:
as §1, §2, §3, §4, §5, §6

For test [9], the system named is Plasmodium falciparum, chloroquine-sensitive strain FCH5C2. Kind of test: activity against P. falciparum in vitro, strain FCH5C2. Particulars: chloroquine-sensitive strain FCH5C2, 48 h-72 h, read-out: IC50 (50% growth inhibition). On the procedure: as §1, §2, §3, §4, §5, §6
Test [10] deals with Plasmodium falciparum, chloroquine-sensitive strain HB3. As to the kind of experiment: activity against P. falciparum in vitro, strain HB3. Particulars: chloroquine-sensitive strain HB3, 48 h-72 h, read-out: IC50 (50% growth inhibition). As for the experimental part:
as §1, §2, §3, §4, §5, §6

Test [11] concerns Plasmodium falciparum, chloroquine-resistant strain RFCR3. As to the kind of experiment: activity against P. falciparum in vitro, strain RFCR3. Particulars: chloroquine-resistant strain RFCR3, 48 h-72 h, read-out: IC50 (50% growth inhibition). On the procedure:
as §1, §2, §3, §4, §5, §6

Test [12] has as its system Plasmodium falciparum, chloroquine-sensitive strain NF54. As to the kind of experiment: activity against P. falciparum in vitro, strain NF54. As to conditions: Plasmodium falciparum; chloroquine-sensitive strain NF54; 48 h-72 h; read-out: IC50 (50% growth inhibition). As for the experimental part:
as §1, §2, §3, §4, §5, §6

On to `CCN1CCCC1CNc1ccnc2cc(Cl)ccc12` (stereo not drawn) [Example 12, (7-Chloro-quinolin-4-yl)-(1-ethyl-pyrrolidin-2-yl-methyl)-amine], for which the IC50 in [1] came out at 0.009 µg/mL (≈ 0.0311 µM); in test [2], 0.01 µg/mL (≈ 0.0345 µM); in [3] it was 0.012 µg/mL (≈ 0.0414 µM); in test [4], 0.007 µg/mL (≈ 0.0242 µM); in test [5], 0.015 µg/mL (≈ 0.0518 µM); in test [6], 0.008 µg/mL (≈ 0.0276 µM). Moreover, the concentration for half-maximal inhibition (IC50) worked out at 0.015 µg/mL (≈ 0.0518 µM) in test [7]; 0.008 µg/mL (≈ 0.0276 µM) in [8]; 0.009 µg/mL (≈ 0.0311 µM) in test [9]; 0.007 µg/mL (≈ 0.0242 µM) in test [10]; 0.015 µg/mL (≈ 0.0518 µM) in test [11]; 0.006 µg/mL (≈ 0.0207 µM) in test [12].

In the case of `CC(C)(CN1CCCC1)Nc1ccnc2cc(Cl)ccc12` [Example 13, (7-Chloro-quinolin-4-yl)-(1,1-dimethyl-2-pyrrolidin-1-yl-ethyl)-amine], the IC50 in test [1] came out at 0.041 µg/mL (≈ 0.135 µM); in test [2], 0.047 µg/mL (≈ 0.155 µM); in test [3], 0.04 µg/mL (≈ 0.132 µM); in test [4], 0.03 µg/mL (≈ 0.0987 µM); in test [5] it was 0.039 µg/mL (≈ 0.128 µM); in test [6], 0.027 µg/mL (≈ 0.0889 µM). The IC50 in test [7] worked out at 0.034 µg/mL (≈ 0.112 µM); in test [8], 0.025 µg/mL (≈ 0.0823 µM); in [9], 0.028 µg/mL (≈ 0.0922 µM); in test [10], 0.038 µg/mL (≈ 0.125 µM); in test [11] it was 0.058 µg/mL (≈ 0.191 µM); in [12], 0.03 µg/mL (≈ 0.0987 µM).

Take `CC(C)(CN1CCCCC1)Nc1ccnc2cc(Cl)ccc12` [Example 14, (7-Chloro-quinolin-4-yl)-(1,1-dimethyl-2-piperidin-1-yl-ethyl)-amine]: the IC50 amounted to 0.014 µg/mL (≈ 0.044 µM) in [1]; 0.021 µg/mL (≈ 0.0661 µM) in test [2]; 0.01 µg/mL (≈ 0.0315 µM) in test [3]; 0.004 µg/mL (≈ 0.0126 µM) in test [4]; 0.007 µg/mL (≈ 0.022 µM) in test [5]; 0.006 µg/mL (≈ 0.0189 µM) in test [6]. The half-maximal inhibitory concentration (IC50) in test [7] stood at 0.02 µg/mL (≈ 0.0629 µM); in test [8] it was 0.006 µg/mL (≈ 0.0189 µM); in test [9], 0.008 µg/mL (≈ 0.0252 µM); in test [10], 0.009 µg/mL (≈ 0.0283 µM); in [11], 0.008 µg/mL (≈ 0.0252 µM); in [12], 0.009 µg/mL (≈ 0.0283 µM).

For the compound `CN(C)CCNc1ccnc2cc(C(F)(F)F)ccc12` [Example 22, N1,N1 -Dimethyl-N2-(7trifluoromethyl-quinolin-4-yl)-ethane-1,2-diamine], the half-inhibitory concentration (IC50) was 0.023 µg/mL (≈ 0.0812 µM) in test [1]; 0.022 µg/mL (≈ 0.0777 µM) in [2]; 0.016 µg/mL (≈ 0.0565 µM) in test [3]; 0.011 µg/mL (≈ 0.0388 µM) in test [4]; 0.029 µg/mL (≈ 0.102 µM) in test [5]; 0.018 µg/mL (≈ 0.0635 µM) in test [6]. Also, the IC50 in test [7] was 0.011 µg/mL (≈ 0.0388 µM); in test [8], 0.014 µg/mL (≈ 0.0494 µM); in test [9], 0.017 µg/mL (≈ 0.06 µM); in test [10], 0.02 µg/mL (≈ 0.0706 µM); in test [11] it was 0.02 µg/mL (≈ 0.0706 µM); in [12], 0.014 µg/mL (≈ 0.0494 µM).

`CC1CCN(CCNc2ccnc3cc(Cl)ccc23)CC1` [Example 24, (7-Chloro-quinolin-4-yl)-[2-(4-methyl-piperidin-1-yl)-ethyl]-amine]: the IC50 in [1] was 0.009 µg/mL (≈ 0.0296 µM); in test [2], 0.015 µg/mL (≈ 0.0494 µM); in test [3], 0.008 µg/mL (≈ 0.0263 µM); in [4], 0.004 µg/mL (≈ 0.0132 µM); in test [5], 0.007 µg/mL (≈ 0.023 µM); in test [6], 0.007 µg/mL (≈ 0.023 µM). Further, the IC50 in test [7] worked out at 0.015 µg/mL (≈ 0.0494 µM); in [8], 0.006 µg/mL (≈ 0.0197 µM); in [9], 0.007 µg/mL (≈ 0.023 µM); in test [10], 0.007 µg/mL (≈ 0.023 µM); in test [11], 0.009 µg/mL (≈ 0.0296 µM); in [12], 0.007 µg/mL (≈ 0.023 µM).

For `CC1(C)CCCN(CCNc2ccnc3cc(Cl)ccc23)C1` [Example 25, (7-Chloro-quinolin-4-yl)-[2-(3,3-dimethyl-piperidin-1-yl)-ethyl]-amine], the IC50 in test [1] was determined as 0.016 µg/mL (≈ 0.0503 µM); in test [2], 0.022 µg/mL (≈ 0.0692 µM); in test [3], 0.015 µg/mL (≈ 0.0472 µM); in test [4], 0.005 µg/mL (≈ 0.0157 µM); in test [5], 0.011 µg/mL (≈ 0.0346 µM); in test [6], 0.008 µg/mL (≈ 0.0252 µM). Besides, the IC50 in test [7] was determined as 0.026 µg/mL (≈ 0.0818 µM); in [8], 0.008 µg/mL (≈ 0.0252 µM); in test [9] it was 0.008 µg/mL (≈ 0.0252 µM); in test [10], 0.01 µg/mL (≈ 0.0315 µM); in [11], 0.014 µg/mL (≈ 0.044 µM); in [12] it was 0.008 µg/mL (≈ 0.0252 µM).
